Results taken from paper PMC5218480 (PLoS ONE, 2017).

System: MV-4-11 cells
Experiment: Gene expression microarray analysis (Affymetrix PrimeView) and GSEA
Format: cell-based, human
Set-up: RFU PODN (11730768_x_at) / Fold change /veh PODN (11730768_x_at) / RFU LINC00158 (11744669_a_at) / Fold change /veh LINC00158 (11744669_a_at) / RFU DUSP10 (11751237_a_at) / Fold change /veh DUSP10 (11751237_a_at) / RFU ID3 (11757404_x_at) / Fold change /veh ID3 (11757404_x_at) / RFU PLEKHG5 (11737974_s_at) / Fold change /veh PLEKHG5 (11737974_s_at) / RFU LRRC4B (11730491_at) / Fold change /veh LRRC4B (11730491_at) / RFU GIMAP4 (11747438_a_at) / Fold change /veh GIMAP4 (11747438_a_at) / RFU KRT8 (11758183_x_at) / Fold change /veh KRT8 (11758183_x_at) / RFU CNN1 (11734310_a_at) / Fold change /veh CNN1 (11734310_a_at) / RFU VPS37D (11726825_at) / Fold change /veh VPS37D (11726825_at) / RFU C10orf10 (11716522_x_at) / Fold change /veh C10orf10 (11716522_x_at) / RFU KIR2DL2 /// KIR2DL4 /// KIR2DL5A /// KIR2DL5B /// KIR2DS1 /// KIR2DS2 /// KIR2DS3 /// KIR2DS4 /// KIR3DL3 /// KIR3DL3 /// KIR3DS1 (11738374_at) / Fold change /veh KIR2DL2 /// KIR2DL4 /// KIR2DL5A /// KIR2DL5B /// KIR2DS1 /// KIR2DS2 /// KIR2DS3 /// KIR2DS4 /// KIR3DL3 /// KIR3DL3 /// KIR3DS1 (11738374_at) / RFU C1QL1 (11718748_at) / Fold change /veh C1QL1 (11718748_at) / RFU TMPRSS4 (11747572_a_at) / Fold change /veh TMPRSS4 (11747572_a_at) / RFU HAMP (11756126_x_at) / Fold change /veh HAMP (11756126_x_at) / RFU RNFT2 (11725882_a_at) / Fold change /veh RNFT2 (11725882_a_at) / RFU NR4A2 (11747474_a_at) / Fold change /veh NR4A2 (11747474_a_at) / RFU ABCC12 (11746883_a_at) / Fold change /veh ABCC12 (11746883_a_at) / RFU TMEM136 (11760407_x_at) / Fold change /veh TMEM136 (11760407_x_at) / RFU CLDN22 /// WWC2 (11732394_at) / Fold change /veh CLDN22 /// WWC2 (11732394_at) / RFU HLA-DPB1 (11760878_x_at) / Fold change /veh HLA-DPB1 (11760878_x_at) / RFU SPINT1 (11716480_a_at) / Fold change /veh SPINT1 (11716480_a_at) / RFU GAP43 (11754022_s_at) / Fold change /veh GAP43 (11754022_s_at) / RFU A4GNT (11735810_at) / Fold change /veh A4GNT (11735810_at) / RFU PRB3 (11715151_x_at) / Fold change /veh PRB3 (11715151_x_at) / RFU TUBB4B (11761932_at) / Fold change /veh TUBB4B (11761932_at) / RFU CAPN14 (11732068_a_at) / Fold change /veh CAPN14 (11732068_a_at) / RFU TMCC2 (11721928_a_at) / Fold change /veh TMCC2 (11721928_a_at) / RFU IRGQ (11745062_a_at) / Fold change /veh IRGQ (11745062_a_at) / RFU FAM174B (11720279_a_at) / Fold change /veh FAM174B (11720279_a_at) / RFU TMPRSS4 (11748680_a_at) / Fold change /veh TMPRSS4 (11748680_a_at) / RFU FAM212B (11763350_a_at) / Fold change /veh FAM212B (11763350_a_at) / RFU PLEKHG5 (11743358_a_at) / Fold change /veh PLEKHG5 (11743358_a_at) / RFU ZSCAN30 (11745921_a_at) / Fold change /veh ZSCAN30 (11745921_a_at) / RFU CMKLR1 (11741424_a_at) / Fold change /veh CMKLR1 (11741424_a_at) / RFU LOC101060620 /// MAPK8IP1 (11723275_at) / Fold change /veh LOC101060620 /// MAPK8IP1 (11723275_at) / RFU SPTSSB (11747773_x_at) / Fold change /veh SPTSSB (11747773_x_at) / RFU PRSS12 (11739890_at) / Fold change /veh PRSS12 (11739890_at) / RFU BIN1 (11741810_x_at) / Fold change /veh BIN1 (11741810_x_at) / RFU WNT11 (11732464_a_at) / Fold change /veh WNT11 (11732464_a_at) / RFU C10orf10 (11716521_a_at) / Fold change /veh C10orf10 (11716521_a_at) / RFU C5orf56 (11738089_at) / Fold change /veh C5orf56 (11738089_at) / RFU CYB561 (11721691_x_at) / Fold change /veh CYB561 (11721691_x_at) / RFU ANKRD19P (11752326_a_at) / Fold change /veh ANKRD19P (11752326_a_at) / RFU OR2T12 /// OR2T33 /// OR2T8 (11738714_s_at) / Fold change /veh OR2T12 /// OR2T33 /// OR2T8 (11738714_s_at) / RFU VCAN (11748164_a_at) / Fold change /veh VCAN (11748164_a_at) / RFU JSRP1 (11732532_at) / Fold change /veh JSRP1 (11732532_at) / RFU KRTAP10-11 (11738290_x_at) / Fold change /veh KRTAP10-11 (11738290_x_at) / RFU MYO3A (11730013_a_at) / Fold change /veh MYO3A (11730013_a_at) / RFU EBF3 (11725865_a_at) / Fold change /veh EBF3 (11725865_a_at) / RFU CAMK2N1 (11719241_x_at) / Fold change /veh CAMK2N1 (11719241_x_at) / RFU C5orf56 (11738088_a_at) / Fold change /veh C5orf56 (11738088_a_at) / RFU OLFML3 (11715873_a_at) / Fold change /veh OLFML3 (11715873_a_at) / RFU LOC100653217 /// NTM (11731650_a_at) / Fold change /veh LOC100653217 /// NTM (11731650_a_at) / RFU MAPK11 (11762145_a_at) / Fold change /veh MAPK11 (11762145_a_at) / RFU FIZ1 (11724087_x_at) / Fold change /veh FIZ1 (11724087_x_at) / RFU OASL (11726364_x_at) / Fold change /veh OASL (11726364_x_at) / RFU SOX15 (11748057_x_at) / Fold change /veh SOX15 (11748057_x_at) / RFU CD79A (11719716_a_at) / Fold change /veh CD79A (11719716_a_at) / RFU HIST1H1D (11736915_at) / Fold change /veh HIST1H1D (11736915_at) / RFU CASKIN2 (11723855_a_at) / Fold change /veh CASKIN2 (11723855_a_at) / RFU LOC730098 (11760151_x_at) / Fold change /veh LOC730098 (11760151_x_at) / RFU OR4N2 (11742367_at) / Fold change /veh OR4N2 (11742367_at) / RFU PRRT2 (11749266_a_at) / Fold change /veh PRRT2 (11749266_a_at) / RFU SNX32 (11753110_a_at) / Fold change /veh SNX32 (11753110_a_at) / RFU CDHR5 (11726645_a_at) / Fold change /veh CDHR5 (11726645_a_at) / RFU RCAN1 (11760418_a_at) / Fold change /veh RCAN1 (11760418_a_at) / RFU FAM167A (11723789_a_at) / Fold change /veh FAM167A (11723789_a_at) / RFU FAM26E (11764081_at) / Fold change /veh FAM26E (11764081_at) / RFU ISYNA1 (11749810_s_at) / Fold change /veh ISYNA1 (11749810_s_at) / RFU ACY1 (11761880_at) / Fold change /veh ACY1 (11761880_at) / RFU 11764098_at / Fold change /veh 11764098_at / RFU SAMD14 (11745864_x_at) / Fold change /veh SAMD14 (11745864_x_at) / RFU NPB (11741838_a_at) / Fold change /veh NPB (11741838_a_at) / RFU TMPRSS6 (11731388_a_at) / Fold change /veh TMPRSS6 (11731388_a_at) / RFU KRTAP10-2 (11738614_at) / Fold change /veh KRTAP10-2 (11738614_at) / RFU ARHGAP8 /// PRR5-ARHGAP8 (11727945_x_at) / Fold change /veh ARHGAP8 /// PRR5-ARHGAP8 (11727945_x_at) / RFU KRTAP5-7 /// NADSYN1 (11734609_at) / Fold change /veh KRTAP5-7 /// NADSYN1 (11734609_at) / RFU RASL12 (11751679_a_at) / Fold change /veh RASL12 (11751679_a_at) / RFU CDKN2B (11736163_a_at) / Fold change /veh CDKN2B (11736163_a_at) / RFU PRF1 (11729649_at) / Fold change /veh PRF1 (11729649_at) / RFU, ZNF638 /// ZNF638-IT1 / Fold change vs veh, ZNF638 /// ZNF638-IT1 / RFU, PANK3 / Fold change vs veh, PANK3 / RFU, SH3YL1 / Fold change vs veh, SH3YL1 / RFU, ZEB2 / Fold change vs veh, ZEB2 / RFU, NRIP1 / Fold change vs veh, NRIP1 / RFU, PTTG1IP / Fold change vs veh, PTTG1IP / RFU, CAPN2 / Fold change vs veh, CAPN2 / RFU, MED14 / Fold change vs veh, MED14 / RFU, SNORA58 / Fold change vs veh, SNORA58 / RFU, C1orf63 / Fold change vs veh, C1orf63 / RFU, LRRFIP1 / Fold change vs veh, LRRFIP1 / RFU, NDUFAF7 / Fold change vs veh, NDUFAF7 / RFU, SLC12A2 / Fold change vs veh, SLC12A2 / RFU, IBTK / Fold change vs veh, IBTK / RFU, ESF1 / Fold change vs veh, ESF1 / Fold change vs veh, TMEM50B / RFU, TAOK1 / Fold change vs veh, TAOK1 / RFU, ACBD3 / Fold change vs veh, ACBD3 / RFU, TMA16 / Fold change vs veh, TMA16 / RFU, RWDD3 / Fold change vs veh, RWDD3 / RFU, BCAT1 / Fold change vs veh, BCAT1 / RFU, EDEM3 / Fold change vs veh, EDEM3 / RFU, TMEM33 / Fold change vs veh, TMEM33 / RFU, WDR75 / Fold change vs veh, WDR75 / RFU, AHCTF1 / Fold change vs veh, AHCTF1 / RFU, TFRC / Fold change vs veh, TFRC / RFU, ZDHHC17 / Fold change vs veh, ZDHHC17 / RFU, NOM1 / Fold change vs veh, NOM1 / RFU, ARL8B / Fold change vs veh, ARL8B / RFU, ZBTB11 / Fold change vs veh, ZBTB11 / RFU, TAMM41 / Fold change vs veh, TAMM41 / RFU, KIAA1704 /// LOC100996395 / Fold change vs veh, KIAA1704 /// LOC100996395 / RFU, ING1 / Fold change vs veh, ING1 / RFU, TRMT61B / Fold change vs veh, TRMT61B / RFU, FUBP3 / Fold change vs veh, FUBP3 / RFU, TP53 / Fold change vs veh, TP53 / RFU, TNKS2 / Fold change vs veh, TNKS2 / RFU, ZFP14 / Fold change vs veh, ZFP14 / RFU, ACTR2 / Fold change vs veh, ACTR2 / RFU, PPP3R1 / Fold change vs veh, PPP3R1 / RFU, PIK3R1 / Fold change vs veh, PIK3R1 / RFU, HNRNPA1 / Fold change vs veh, HNRNPA1 / RFU, RNF170 / Fold change vs veh, RNF170 / RFU, ZNF28 / Fold change vs veh, ZNF28 / RFU, RNGTT / Fold change vs veh, RNGTT / RFU, OGT / Fold change vs veh, OGT / RFU, BRD1 / Fold change vs veh, BRD1 / RFU, MARS / Fold change vs veh, MARS / RFU, ZNF655 / Fold change vs veh, ZNF655 / RFU, FAHD1 / Fold change vs veh, FAHD1 / RFU, BDP1 / Fold change vs veh, BDP1 / RFU, LRRCC1 / Fold change vs veh, LRRCC1 / RFU, ARID1A / Fold change vs veh, ARID1A / RFU, ZNF146 / Fold change vs veh, ZNF146 / RFU, ZNF330 / Fold change vs veh, ZNF330 / RFU, GPN3 / Fold change vs veh, GPN3 / RFU, C9orf123 / Fold change vs veh, C9orf123 / RFU, N4BP2L2 / Fold change vs veh, N4BP2L2 / RFU, ARFIP1 / Fold change vs veh, ARFIP1 / RFU, FAM179B / Fold change vs veh, FAM179B / RFU, BCL10 / Fold change vs veh, BCL10 / RFU, UHRF1BP1L / Fold change vs veh, UHRF1BP1L / RFU, BET1 / Fold change vs veh, BET1 / RFU, CNOT2 / Fold change vs veh, CNOT2 / RFU, ZNF268 / Fold change vs veh, ZNF268 / Fold change vs veh, ZNF507 / RFU, DGCR2 / Fold change vs veh, DGCR2 / RFU, WDSUB1 / Fold change vs veh, WDSUB1 / Fold change vs veh, HSP90B1 /// MIR3652 / RFU, ADSS / Fold change vs veh, ADSS / RFU, GK / Fold change vs veh, GK / RFU, ZNF148 / Fold change vs veh, ZNF148 / RFU, TAF9 / Fold change vs veh, TAF9 / RFU, SLC1A5 / Fold change vs veh, SLC1A5 / RFU, SLMO2 / Fold change vs veh, SLMO2 / RFU, ABCC4 / Fold change vs veh, ABCC4 / RFU, LOC101060439 /// RAP1B / Fold change vs veh, LOC101060439 /// RAP1B / RFU, RFX7 / Fold change vs veh, RFX7 / RFU, GTPBP10 / Fold change vs veh, GTPBP10 / RFU, CNEP1R1 / Fold change vs veh, CNEP1R1 / RFU, BIVM-ERCC5 /// ERCC5 / Fold change vs veh, BIVM-ERCC5 /// ERCC5 / RFU, ILF3 / Fold change vs veh, ILF3 / RFU 11762660_at / Fold change /veh 11762660_at / RFU VCAN (11757783_s_at) / Fold change /veh VCAN (11757783_s_at) / RFU DDX43 (11728927_at) / Fold change /veh DDX43 (11728927_at) / RFU KRT8 (11758188_x_at) / Fold change /veh KRT8 (11758188_x_at) / RFU NKD1 (11759106_at) / Fold change /veh NKD1 (11759106_at) / RFU SRD5A1 (11742802_a_at) / Fold change /veh SRD5A1 (11742802_a_at) / RFU TPSAB1 /// TPSB2 (11721975_s_at) / Fold change /veh TPSAB1 /// TPSB2 (11721975_s_at) / RFU GSTM3 (11746129_a_at) / Fold change /veh GSTM3 (11746129_a_at) / RFU IL23R (11737362_x_at) / Fold change /veh IL23R (11737362_x_at) / RFU TMEM51 (11727254_a_at) / Fold change /veh TMEM51 (11727254_a_at) / RFU PIWIL2 (11732686_x_at) / Fold change /veh PIWIL2 (11732686_x_at) / RFU ORM1 (11744905_x_at) / Fold change /veh ORM1 (11744905_x_at) / RFU CCDC152 (11743942_at) / Fold change /veh CCDC152 (11743942_at) / RFU ECM1 (11717891_a_at) / Fold change /veh ECM1 (11717891_a_at) / RFU IL23R (11748794_a_at) / Fold change /veh IL23R (11748794_a_at) / RFU TNFAIP8L3 (11732012_x_at) / Fold change /veh TNFAIP8L3 (11732012_x_at) / RFU MBOAT4 (11741988_at) / Fold change /veh MBOAT4 (11741988_at) / RFU 11764193_at / Fold change /veh 11764193_at / RFU TMEM53 (11763286_at) / Fold change /veh TMEM53 (11763286_at) / RFU MAGEB2 (11727129_at) / Fold change /veh MAGEB2 (11727129_at) / RFU TMEM200A (11744735_a_at) / Fold change /veh TMEM200A (11744735_a_at) / RFU CCDC152 (11751479_a_at) / Fold change /veh CCDC152 (11751479_a_at) / RFU FAM211A (11726209_a_at) / Fold change /veh FAM211A (11726209_a_at) / RFU RGS16 (11746705_a_at) / Fold change /veh RGS16 (11746705_a_at) / RFU VCAN (11755009_s_at) / Fold change /veh VCAN (11755009_s_at) / RFU RHOB (11743442_s_at) / Fold change /veh RHOB (11743442_s_at) / RFU RGS16 (11720943_a_at) / Fold change /veh RGS16 (11720943_a_at) / RFU RGS16 (11720944_at) / Fold change /veh RGS16 (11720944_at) / RFU, VPS4B / Fold change vs veh, VPS4B / RFU, CREB1 / Fold change vs veh, CREB1 / RFU, DNAJC13 / Fold change vs veh, DNAJC13 / RFU, GNAQ / Fold change vs veh, GNAQ / RFU, CDK5R1 / Fold change vs veh, CDK5R1 / RFU, ZRANB3 / Fold change vs veh, ZRANB3 / RFU, CUL4A / Fold change vs veh, CUL4A / RFU, CCNY / Fold change vs veh, CCNY / RFU, UFL1 / Fold change vs veh, UFL1 / RFU, COG3 / Fold change vs veh, COG3 / RFU, DIAPH2 / Fold change vs veh, DIAPH2 / RFU, SKA2 / Fold change vs veh, SKA2 / RFU, AFF3 / Fold change vs veh, AFF3 / RFU, LMF1 / Fold change vs veh, LMF1 / RFU, IPO11 / Fold change vs veh, IPO11 / RFU, DFFB / Fold change vs veh, DFFB / RFU, FOXP1 / Fold change vs veh, FOXP1 / RFU, CARD8 / Fold change vs veh, CARD8 / RFU, STRN3 / Fold change vs veh, STRN3 / RFU, ADK / Fold change vs veh, ADK / RFU, RASSF2 / Fold change vs veh, RASSF2 / RFU, WIPF1 / Fold change vs veh, WIPF1 / RFU, LARP1B / Fold change vs veh, LARP1B / RFU, RASA1 / Fold change vs veh, RASA1 / RFU, RB1 / Fold change vs veh, RB1 / RFU, PPFIA1 / Fold change vs veh, PPFIA1 / RFU, MAT2A / Fold change vs veh, MAT2A / RFU, CCT5 / Fold change vs veh, CCT5 / RFU, WDR92 / Fold change vs veh, WDR92 / RFU, CUX1 / Fold change vs veh, CUX1 / RFU, TTC7A / Fold change vs veh, TTC7A / RFU, TMEM135 / Fold change vs veh, TMEM135 / RFU, DEPTOR / Fold change vs veh, DEPTOR / RFU, CPM / Fold change vs veh, CPM / RFU, DNAJB6 / Fold change vs veh, DNAJB6 / RFU, CACNA2D3 / Fold change vs veh, CACNA2D3 / RFU, DTX4 / Fold change vs veh, DTX4 / RFU, TFCP2 / Fold change vs veh, TFCP2 / RFU, GMCL1 /// GMCL1P1 / Fold change vs veh, GMCL1 /// GMCL1P1 / RFU, AEBP2 / Fold change vs veh, AEBP2 / RFU, SNHG1 /// SNORD22 /// SNORD25 /// SNORD26 /// SNORD27 /// SNORD28 /// SNORD29 /// SNORD31 / Fold change vs veh, SNHG1 /// SNORD22 /// SNORD25 /// SNORD26 /// SNORD27 /// SNORD28 /// SNORD29 /// SNORD31 / Fold change (Aza/veh), C12orf56 (ProbeSet 11735607_a_at) / Fold change (ACY-1035/veh), C12orf56 (ProbeSet 11735607_a_at) / Fold change (Aza/veh), FGFR1OP (ProbeSet 11751329_s_at) / Fold change (ACY-1035/veh), FGFR1OP (ProbeSet 11751329_s_at) / Fold change (Aza/veh), VPS36 (ProbeSet 11739960_a_at) / Fold change (ACY-1035/veh), VPS36 (ProbeSet 11739960_a_at) / RFU SYPL1 (11715823_x_at) / Fold change /veh SYPL1 (11715823_x_at) / RFU IGFBP7 (11715501_s_at) / Fold change /veh IGFBP7 (11715501_s_at) / RFU REEP3 (11722064_at) / Fold change /veh REEP3 (11722064_at) / RFU IGLL1 (11728026_x_at) / Fold change /veh IGLL1 (11728026_x_at): dose or concentration left out as unconfirmed
Conditions: ProbeSet 11752001_a_at; LIST D

Nc1ncn([C@@H]2O[C@H](CO)[C@@H](O)[C@H]2O)c(=O)n1 [azacitidine]
Fold change vs veh, CUL4A: 0.81
